Tests used:
M21 cells = test: Cytotoxicity in cultured cells; type: cell-based, human; conditions: 25 µM drug, 30 min treatment
Experimental: (§1) For assessment of the UTO cytotoxicity the cytotoxicity of RPAR-UTO-PS, UTO-PS, PS, free UTO, and free DOX in cultured PPC-1 (FIG. 4) and M21 (FIG. 5) cells after 30 min treatment over a range of drug concentrations was tested.

PPC-1 cells = test: Cytotoxicity in cultured cells; type: cell-based, human; conditions: 30 min treatment
Experimental: as §1

[1] = Encapsulation efficiency in polymersomes (section 3.2); type: physicochemical; conditions: thin-film hydration, after size exclusion chromatography
Experimental: For the encapsulation of the drug inside PS, 50 nmols of drug were dissolved in 100 µL of acetone and added to the polymers dissolved in acetone (total amount of polymer was 5 mg). The acetone was evaporated to form the polymer/drug film and the PS were formed as described above.
PS were purified by size exclusion chromatography. Agarose beads with a diameter of 45-165 µm ([…] 4B gel) were used as stationary phase. The height of the Sephadex gel in a column was 8 cm (volume 25.13 mL). The PS sample was eluted with PBS pH 7.4.
The amount of encapsulated drug was quantified using a Nanodrop 2000c UV-VIS spectrophotometer (Thermo Scientific, USA). For drug quantification, serial dilutions of drug in MeOH:water 1:1 were prepared and the absorbance at 490 nm was measured. Using gathered data, the linear trend line was constructed in MS Excel program and the formula was further used to evaluate the concentration of drug inside PS.
For assessment of the UTO encapsulation efficiency the above depicted anthracycline derivative was encapsulated in a PS using a thin-film hydration method. After encapsulation the sample was purified by size exclusion chromatography to remove non-encapsulated drug. […]

[2] = Encapsulation efficiency, comparison PS-UTO vs. PS-DOX (section 4); type: physicochemical; conditions: PEG-PCL-PS
Experimental: Polymersomes were prepared by dissolving 5 mg of PEG-PCL in 0.3 mL acetone. The acetone was evaporated with nitrogen flow forming a thin polymeric film on the wall of the glass vial. The film was hydrated with 0.5 mL of PBS pH 7.4 previously purged with nitrogen flow, heated for 30 seconds in a 65° C. water bath, and sonicated for 30 seconds. The heating and sonication steps were repeated until the PS were formed and polymer aggregates were not observed in the suspension. The final volume of PS samples was 0.5 mL and the total polymer concentration 10 mg/mL.
For the PS encapsulation of UTO […] of UTO were dissolved in 100 µL of acetone (0.5 mM concentration) and added to the polymers dissolved in acetone (total amount of polymer - 5 mg, UTO concentration 0.125 mM). The acetone was evaporated to form the polymer/drug film and the PS were formed as described above.
For DOX encapsulation the polymeric film was hydrated with 2 mM DOX solution in PBS pH 7.4 and the PS were formed as described above. […]
The UTO and DOX PS-encapsulated amounts were quantified using UV-VIS spectrometry (Thermo Scientific, USA). For UTO quantification, serial dilutions of UTO in MeOH:water 1:1 were prepared and the absorbance at 485 nm was used for calibration. For DOX quantification, serial dilutions of DOX in PBS were prepared and also the absorbance at 485 nm was measured. […]

[3] = Cumulative drug release from polymersomes; type: physicochemical; conditions: after 48 h, 37° C., PBS
Experimental: To further evaluate the UTO and DOX cumulative release behavior from polymersomes, UTO-and DOX-loaded PS were incubated at 37° C. in PBS (0.25 mL) for different time periods (0; 1; 4; 24; and 48 h). The samples were centrifuged using Amicon Ultra centrifugal filters (MWCO 100 kDa) for 20 min at 6,000 g at RT. The fluorescence of the filtrates was measured at 485 nm/535 nm (0.1 s) using a Victor X5 Multilabel Microplate Reader (Perkin Elmer, USA) to quantify the released drug amount.

Row | SMILES | cell viability (M21 cells) | cell viability (PPC-1 cells; 2.5 µM drug) | cell viability (PPC-1 cells; 25 µM drug) | encapsulation efficiency (EE) [1] | encapsulation efficiency, times lower compared to UTO [2] | encapsulation efficiency (EE) ([2]; film hydration, after purification) | drug released from the PS [3] | viability at 25 µM (M21 cells; Homo sapiens, 0.5 h, read-out: cell viability) | viability at 2.5 µM (PPC-1 cells; Homo sapiens, 0.5 h, 2.5 µM drug, read-out: cell viability) | viability at 25 µM (PPC-1 cells; Homo sapiens, 0.5 h, 25 µM drug, read-out: cell viability)
1 | COc1cccc2c1C(=O)c1c(O)c3c(c(O)c1C2=O)C[C@@](O)(C(=O)CO)C[C@@H]3O[C@H]1C[C@H](N)[C@H](O)[C@H](C)O1 [DOX, doxorubicin] | 58% | 87% | 56% | 1% | approximately 20 times | 2.3% | approximately 10% |  |  | 
2 | CC(=O)OCOC(=O)N1CO[C@@H]2[C@H](C)O[C@@H](O[C@H]3C[C@](N)(C(C)O)Cc4c(O)c5c(c(O)c43)C(=O)c3ccccc3C5=O)C[C@@H]21 (some centres unmarked) [UTO] |  |  |  |  |  |  | less than 3% | 15% | 68% | 14%

From patent US20230320986A1, “TARGETED ANT[…] SYSTEM FOR CANCER TREATMENT” (priority 2020, published 2023)
